Results reported in patent US5026688A (Administrators of the Tulane Educational Fund, priority 1988, dated 1991).
Where two headings read alike, the source gives them in different places.

Legend:
[1] = test system: reverse transcriptase; details: cited from earlier work
[2] = test system: HIV-1; test: inhibition of HIV-1 replication in PBL (p24 antigen in culture supernatant); assay type: cell-based; details: for P24 antigen in culture supernatant: drug-free control 372,835 pg/ml
Protocol: The concentration of virus-specificp24 antigen in the culture, and, therefore the ability of each drug to inhibit HIV replication was measured by their ability to inhibit production of the p24 antigen.
Inhibition of HIV-1 replication was determined using PBL from seronegative donors. PBL activated with 2 μg/ml PHA for 72 hrs were washed with medium and 10×10^6 cells were incubated for 4 hr at 37° C. (Mitsuya et al., PNAS USA 82:7096, […]) in 5 ml medium containing the appropriate concentration of the drug. The cells were then infected with 10^4 TCID50 of HIV (isolated CD 451) by the addition of 0.1 ml of virus preparation and gentle rocking of the cultures of 15 min intervals for 90 min at room temperature. The fluid volume was increased to 10ml and the cultures maintained at 37° C. in a humidified 5% CO2 -in-air atmosphere. On day 3 post-infection, half the cell-free fluid in each culture was removed and replaced with fresh medium containing the respective drug. The extent of HIV replication in a control and the experimental cultures was evaluated 7 days post-infection by quantifying the concentration of HIV-specific p24 antigen in an undiluted and 5-fold serial dilutions of the culture supernatants using commercial antigen-capture assay kits (DuPont, Billerica, Mass.). The concentration of HIV-specific p24 antigen in the 7 day supernatant fluid of a drug-free control culture was 372,835 pg/ml.

[3] = test system: peripheral blood lymphocytes; test: uptake of radiolabelled drug by peripheral blood lymphocytes (PBL); assay type: in vitro ADME
Protocol: DP-AZT was therefore tested to determine if the problem of rapid elimination and inadequate permeability could be overcome.
PBL from HIV seronegative donors were also separated by standard Ficol-Hypaque gradient centrifugation. The lymphocytes were grown in RPMI 1640 supplemented with 15% heat-inactivated FBS, 100 U/ml penicillin, 100 μg/ml streptomycin and 2 μg/ml PHA. The cells were incubated for 4 days at 37° C. and uptake studies were done according to the procedure described above for H9 cells.

[4] = test system: H9 cells; test: uptake of radiolabelled drug by H9 cells; assay type: in vitro ADME; details: for cellular uptake relative to AZT, in words: H9 cells (FIGS. 6, 7)
Protocol: The reaction was stopped by centrifugation at 13,000×g for 1 min. The cell free supernatant was discarded by aspiration and the cell pellet was washed with ice cold PBS to remove any traces of free radioactive drug. The cell pellet was resuspended in PBS and counted for radioactivity in a Tri-carb Packard liquid scintillation analyzer Model 1500 (Packard Instruments Co., Dowers Grove, Ill.) and the percentage of radioactivity was calculated. (All experiments were done in duplicate and repeated at least three times).

[5] = test system: AIDS; details: cited from earlier work
[6] = Richman et al. 1987; cited from earlier work
[7] = test system: p24 gag protein of HIV; details: in vitro; Mitsuya et al. 1985; cited from earlier work
[8] = in vivo; cited from earlier work
[9] = physical and chemical stability; assay type: physicochemical
Excerpt: The general pattern of synthesis of DP-AZT is outlined in FIG. 1. Treatment of 3,-azido-2',3'-dideoxythymidine in the presence of DCC and 4-dimethyl amino pyridine in ethyl acetate yield the nicotinyl ester. The ester is then quarternized by refluxing it in acetone with methyl iodide. […] In addition to DP-AZT, other derivatives at the N-methyl site in particular can also be prepared.

[10] = test system: mouse bone marrow cells; test: bone marrow toxicity: inhibition of [3H]-thymidine uptake in murine bone marrow cells; assay type: cell-based; details: for less inhibition of [3H]-thymidine incorporation into bone marrow cells than AZT: relative to AZT, 60 h exposure, 12 h pulse
Protocol: The percent inhibition of [^3 H]-thymidine uptake was used as an indication of bone marrow toxicity (FIG. 5).
The bone marrow cells were obtained from CD-1 mice as described under Section 6.2.3, supra. Approximately 2×10^5 cells in 100 μl of medium were plated in a 96-well plate, 100 μl of drug solution at various concentrations (0-500 μM) was added, and the plate was incubated at 37° C. for 60 hr. [^3 H]-Thymidine (0.2 μc/well, specific activity 30 c/mmole) was pulsed for 12 hr, and at the end of 72 hr cells were harvested by using Skatron 7019 cell harvester.

[11] = test system: peripheral blood lymphocytes; test: hydrolysis of DP-AZT to AZT in PBL; assay type: in vitro ADME; details: 500 μM DP-[3H]-AZT, 5×10^5 PBL, 37° C., 4 h
Protocol: (§1) In contrast, bone marrow cells were able to hydrolyze only 50% of the pro-drug at the end of 4 hours of incubation.
Suspensions of 5×10^5 PBL (100 μl) in Eppendorf tubes were mixed with 100 μl of 500 μM DP-AZT and incubated at 37° C. At various time intervals (0 to 4 hrs), cell pellets were collected after centrifugation at 13,000×g for 1 min, washed with PBS and extracted with ice-cold 0.2 M perchloric acid. The acid extracts were clarified by centrifugation, neutralized with KOH, centrifuged to remove insoluble potassium perchlorate, evaporated to dryness under reduced pressure (Buchler Evapo-Mix apparatus) and constituted with 200 μl of methanol (Zimmerman et al., J. Biol. Chem. 262:5748, 1987).

[12] = hydrolysis of DP-AZT by rat liver microsomes; assay type: in vitro ADME; details: 15.5 mg protein/ml, 37° C., 0 to 4 h
Protocol: as §1
To 900 μl of rat liver microsomes containing 15.5 mg protein/ml (Wong et al., Biochem. Pharmacol. 37:473, 1988), 100 μl of DP-AZT (2 mg/ml dissolved in dimethylsulfoxide) was added and incubated at 37° C. in a water bath. At various time intervals (0 to 4 h) 100 μl of sample was withdrawn and added immediately to ice-cold methanol (400 μl).

[13] = hydrolysis of DP-AZT in mouse bone marrow cells; assay type: in vitro ADME; details: end of 4 hours of incubation, read-out: hydrolysis of the pro-drug
Protocol: as §1
Bone marrow cells were obtained from femurs of 8-week old CD-1 mice. The femurs were removed asceptically and rinsed in RPMI-1640. Bone marrow cells were flushed with medium by using a 19-gauge needle and a single cell suspension was made by pipette action. These cells were used for hydrolytic experiments similar to described above for PBL.

[14] = hydrolysis of DP-AZT by human plasma in vitro; assay type: in vitro ADME; details: up to 4 hours in incubation
[15] = test system: HIV; details: Yamamoto et al. 1986; cited from earlier work
[16] = test system: retrovirally infected mice; details: Watson et al. 1988; cited from earlier work
[17] = 0.5 μM drug, 7 days post-infection
[18] = 5.0 μM drug, 7 days post-infection
[19] = 10.0 μM drug, 7 days post-infection
[20] = Human immunodeficiency virus 1, PBL, 168 h, 0.5 μM drug, 7 days post-infection, read-out: p24 antigen, % reduction of control
[21] = Human immunodeficiency virus 1, PBL, 168 h, 5.0 μM drug, 7 days post-infection, read-out: p24 antigen, % reduction of control
[22] = Human immunodeficiency virus 1, PBL, 168 h, 10.0 μM drug, 7 days post-infection, read-out: p24 antigen, % reduction of control

Molecule: Cc1cn([C@H]2C[C@H](N=[N+]=[N-])[C@@H](COP(=O)(O)OP(=O)(O)OP(=O)(O)O)O2)c(=O)[nH]c1=O [AZT triphosphate]
- reverse transcriptase inhibition, in words [1]: competitive inhibitor of reverse transcriptase

Molecule: Cc1cn([C@H]2C[C@H](N=[N+]=[N-])[C@@H](CO)O2)c(=O)[nH]c1=O [AZT, 3'-azido-2',3'-dideoxythymidine, reference compound]
- P24 antigen in culture supernatant [2, 17]: 67,273 pg/ml
- P24 antigen in culture supernatant [2, 18]: 1,758 pg/ml
- P24 antigen in culture supernatant [2, 19]: 2,235 pg/ml
- inhibition at 0.5 µM [2, 20]: 82%
- inhibition at 5 µM [2, 21]: 99.5%
- inhibition at 10 µM [2, 22]: 99.4%
- reverse transcriptase inhibition, in words [1]: does not inhibit reverse transcriptase
- time to maximum intracellular concentration ([3]; 5 μM, PBL): 2 h
- uptake linearity ([3]; 5 μM, PBL): linear for one hour
- time to maximum intracellular concentration ([4]; 5 μM, H-9 cells): 2 h
- uptake linearity ([4]; 5 μM, H-9 cells): linear for one hour
- mortality in comparison with placebo, in words ([5]; Fischl et al. 1987): significant differences in mortality
- progression of disease, in words ([5]; individuals with AIDS-related complex, Fischl et al.): delay the progression of the disease
- major adverse reactions [6]: nausea, myalgia and insomnia
- expression of p24 gag protein of HIV, in words [7]: blocks the expression of the p24 gag protein of HIV
- half-life in plasma, in words [8]: very short half-life in plasma

Molecule: Cc1cn([C@H]2C[C@H](N=[N+]=[N-])[C@@H](COC(=O)C3=CN(C)C=CC3)O2)c(=O)[nH]c1=O [DP-AZT, 5,-[(1,4-dihydro-1-methyl-3-pyridinylcarbonyl)oxy] -3,-azido-2',3'dideoxythymidine]
- air oxidation stability ([9]; during crystallization and drying): stable compound which does not undergo air oxidation
- result of attempted chemical oxidation ([9]; hydrogen peroxide or sodium nitrate solution): hydrolysis of the ester producing AZT
- efficacy against HIV-1 relative to AZT, in words ([2]; 0.5 μM): significantly greater efficacy against HIV-1 than AZT had
- P24 antigen in culture supernatant [2, 17]: 3,310 pg/ml
- P24 antigen in culture supernatant [2, 18]: 475 pg/mL
- P24 antigen in culture supernatant [2, 19]: 215 pg/mL
- inhibition at 0.5 µM [2, 20]: 99.1%
- inhibition at 5 µM [2, 21]: 99.9%
- inhibition at 10 µM [2, 22]: 99.9%
- inhibition at 0.5 µM ([2]; Human immunodeficiency virus 1, read-out: inhibition (p24 antigen)): 99%
- less inhibition of [3H]-thymidine incorporation into bone marrow cells than AZT ([10]; 5 μM): 44%
- less inhibition of [3H]-thymidine incorporation into bone marrow cells than AZT ([10]; 10 μM): 59%
- bone marrow toxicity relative to AZT, in words ([10]; 5 and 10 μM): significantly less toxic than AZT
- hydrolysis of the pro-drug [11]: complete hydrolysis of the pro-drug within four hours
- hydrolysis by rat liver microsomes [12]: hydrolyzed by rat-liver microsomes (FIG. 4) in a manner similar to that observed in PBL
- time to maximum intracellular concentration ([3]; 5 μM, PBL): 2 h
- uptake linearity ([3]; 5 μM, PBL): linear for one hour
- higher intracellular concentration than [3H]-AZT ([3]; PBL, 5 μM, relative to AZT): at least 50%
- time to maximum intracellular concentration ([4]; 5 μM, H-9 cells): 2 h
- uptake linearity ([4]; 5 μM, H-9 cells): linear for one hour
- higher intracellular concentration than [3H]-AZT ([4]; H-9 cells, 5 μM, relative to AZT): at least 50%
- metabolised at 4 h, 500 µM [13]: 50%
- hydrolysis by human plasma in vitro [14]: not hydrolyzed

Molecule: Cc1cn([C@H]2C[C@H](N=[N+]=[N-])[C@@H](COC(=O)CN3CCN(c4ccccc4)CC3)O2)c(=O)[nH]c1=O [N-phenylpiperazine analogue]
- cellular uptake relative to AZT, in words [4]: improved cellular uptake

Molecule: CC1=C(/C=C/C(C)=C/C=C/C(C)=C/C(=O)O)C(C)(C)CCC1 [Retinoic acid]
- HIV replication, in words [15]: inhibit HIV replication somewhat

Molecule: Cc1cn([C@H]2C[C@H](N=[N+]=[N-])[C@@H](COC(=O)c3ccc[n+](C)c3)O2)c(=O)[nH]c1=O [compound 2]
- hygroscopicity [9]: hygroscopic

Molecule: Cc1cn([C@H]2C[C@H](N=[N+]=[N-])[C@@H](COC(=O)C(N)Cc3ccccc3)O2)c(=O)[nH]c1=O (some centres unmarked) [phenylalanine AZT analogue]
- cellular uptake relative to AZT, in words ([3]; PBL (FIG. 8)): improved over AZT with respect to cellular uptake

Molecule: CC1=C(/C=C/C(C)=C/C=C/C(C)=C/C(=O)OC[C@H]2O[C@@H](n3cc(C)c(=O)[nH]c3=O)C[C@@H]2N=[N+]=[N-])C(C)(C)CCC1 [retinoic acid ester of AZT]
- cellular uptake relative to AZT, in words [4]: a substantial improvement over cellular uptake of AZT

Molecule: Cc1cn([C@H]2C[C@H](N=[N+]=[N-])[C@@H](COC(=O)C(N)Cc3ccc(O)cc3)O2)c(=O)[nH]c1=O (some centres unmarked) [tyrosine AZT analogue]
- cellular uptake relative to AZT, in words [4]: improved over AZT with respect to cellular uptake

Molecule: Vitamin A
- activated macrophages and death rate, in words [16]: increased numbers of activated macrophages and decreased death rate
